The subject of one assay is Phospho-Akt (S473). Briefly: Cell ELISA Assay, Phospho-Akt detection. In kind it is cell-based. Conditions: cells treated for 1 hour, cell line not stated. Here is the method:
Phospho-Akt detection analysis. Phospho-Akt (S473) was detected using cell ELISA. Briefly, cells were plated in a 96-well plate at 7,000-10,000 cells per well, cultured for 2-3 days in complete growth medium, and then treated with various drugs or combinations of drugs for 1 hour. The cells were fixed with ice-cold methanol, and washed with TBS supplemented with 1% H2O2. Phospho-Akt (S473) was probed with corresponding rabbit antibody as a primary antibody, and horseradish peroxidase conjugated goat anti-rabbit IgG. After treatment with SuperSignal® ELISA for 15 minutes, the detection was performed using a luminometer. Data were normalized to untreated controls and analyzed with Microsoft Excel.

A further assay deals with cells. Briefly: Cell proliferation / viability GI50 (MTS assay or ATP quantitation assay). The format is cell-based. To be noted: 72 hours treatment; cell line and assay (MTS or ATP quantitation) not stated. Here is the method:
Cell proliferation analysis. Cell survival was determined by the MTS assay. Briefly, cells were plated in a 96-well plate at 2,000-10,000 cells per well, cultured for 24 hours in complete growth medium, and then treated with various drugs and drug combinations for 72 hours. MTS was added and incubated for 4 hour, followed by assessment of cell viability using the microplate reader at 570 nm. Data were normalized to untreated controls and analyzed with Microsoft Excel.
Cell viability analysis. Cell viability was determined by the ATP quantitation assay. Briefly, cells were plated in a 96-well plate at 2,000-10,000 cells per well, cultured for 24 hours in complete growth medium, and then treated with various drugs or combination of drugs for 72 hours. CellTiter-Glo® reagent was added and incubated at room temperature for 10 minutes, followed by assessment of cell viability using a luminometer. Data were normalized to untreated controls and analyzed with Microsoft Excel.

Assay [1] deals with T1, Full-length inactive AKT1 (Homo sapiens (Human), UniProt P31749). Briefly: Thermal Shift Assay (protein-ligand binding). Conditions: Kd at 25° C. calculated using constant ligand binding enthalpy −15 kcal/mol; 15 μM compound, ANS dye. Here is the method: Binding analysis. Protein-ligand binding was identified with the thermal shift assay which is based on the ligand-induced stabilization of the protein tertiary structure. The thermal stability of the ligand-Akt1 complex was assessed by subjecting the complex to a set temperature gradient and by comparison of the meltion temperature of the Akt1-ligand complex with the melting temperature of the protein alone. Protein unfolding was monitored by the fluorescence readout of an environmentally sensitive fluorescent dye, 1-anilinonaphthalene-8-sulfonic acid (ANS). […] The PCR plate was placed into a RT-PCR instrument and a temperature gradient was performed, increasing from 27 to 80° C., at 1° C./30 sec heat rate with a dwell time of 20 sec. The change in ANS fluorescence was measured using the filter set of 475 nm/525 nm excitation/emission.

For assay [2], the target named is T1, Full-length inactive AKT1. Briefly: Inactive Akt Alpha Screen Assay. Conditions: 8 nM inactive Akt1 activated by PDK1 and MAPKAPK2, lipid vesicles, 50 μM ATP, biotinylated crosstide; read-out: Akt1 biochemical assay IC50 AlphaScreen crosstide. Here is the method: AKT1 activity was assayed using the GSK3-derived biotinylated peptide substrate, crosstide (biotin-[…]), and AlphaScreen™ (Amplified Luminescent Proximity Homogeneous Assay) technology. AKT1 activation was achieved by the addition of the activating kinases PDK1 and MAPKAPK2, lipid vesicles, and ATP. The extent of peptide phosphorylation was determined using a phospho-AKT substrate antibody and acceptor beads conjugated to Protein A and donor beads conjugated to streptavidin that bind to the biotin on the peptide. Excitation of the donor beads converted ambient oxygen to excited singlet oxygen which, when in close proximity to acceptor beads, reacted with acceptor beads resulting in signal amplification.
After a 20 minute pre-incubation at room temperature, the kinase reaction was initiated by the addition of 5 μL of an activation mixture diluted in assay buffer containing biotinylated crosstide, PDK1, MAPKAPK2, DOPS/DOPC, PtdIns(3,4,5)P3, and ATP for final concentrations of 60 nM biotinylated crosstide, 0.1 nM PDK1, 0.7 nM MK2, 5.5 μM DOPS, 5.5 μM DOPC, 0.5 μM PtdIns(3,4,5)P3, and 50 μM ATP. The plates were incubated for 30 minutes at room temperature, and then stopped in the dark by the addition of 10 μL stop/detection mixture prepared in assay buffer containing EDTA, AlphaScreen™ Streptavidin Donor and Protein A Acceptor beads, and phospho-AKT substrate antibody for final concentrations of 10 mM EDTA, 500 ng/well of both AlphaScreen™ Streptavidin Donor beads and Protein A Acceptor beads, and phospho-AKT substrate antibody at a final dilution of 1:350. Assay plates were incubated for 90 minutes at room temperature in the dark, and the plates were read on a Perkin Elmer Envision Multilabel plate reader (excitation wavelength: 640 nm, emission wavelength: 570 nm). […]

Molecules are shown by their SMILES.

T1 sequence (P31749 whole entry): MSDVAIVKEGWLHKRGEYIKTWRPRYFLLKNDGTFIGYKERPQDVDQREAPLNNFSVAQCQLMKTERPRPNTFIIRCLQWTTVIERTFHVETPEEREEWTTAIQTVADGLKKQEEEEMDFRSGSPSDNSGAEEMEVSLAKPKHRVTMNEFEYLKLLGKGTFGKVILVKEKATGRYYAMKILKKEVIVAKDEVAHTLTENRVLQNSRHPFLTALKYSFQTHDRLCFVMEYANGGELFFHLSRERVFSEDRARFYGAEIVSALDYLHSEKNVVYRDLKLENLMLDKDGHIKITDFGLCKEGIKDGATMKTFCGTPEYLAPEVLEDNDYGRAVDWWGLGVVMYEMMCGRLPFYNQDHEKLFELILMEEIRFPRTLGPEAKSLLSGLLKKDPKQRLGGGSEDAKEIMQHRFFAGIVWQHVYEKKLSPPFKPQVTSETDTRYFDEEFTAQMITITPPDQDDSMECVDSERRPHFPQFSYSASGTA

`Nc1ncccc1-c1nc2ccc(N3CCOCC3)nc2n1-c1ccc(C2(N)CCC2)cc1` [Cmpd 1, 3-(3-(4-(1-aminocyclobutyl)phenyl)-5-morpholino-3H-imidazo[4,5-b]pyridin-2-yl)pyridin-2-amine]: the IC50 in the assay on Phospho-Akt (S473) was 0.235 µM.

With `Nc1ncccc1-c1nc2ccc(-c3cccc(NC(=O)C4CC4)c3)nc2n1-c1ccc(C2(N)CCC2)cc1` [Cmpd 3, N-(3-(3-(4-(1-aminocyclobutyl)phenyl)-2-(2-aminopyridin-3-yl)-3H-imidazo[4,5-b]pyridin-5-yl)phenyl)cyclopropane-carboxamide], the GI50 in the assay on cells is 444 µM. Also, the IC50 in the assay on Phospho-Akt (S473) was 0.029 µM; in assay [2], 0.00309 µM. Also, the Kd in assay [1] was 0.007 µM.

Consider `CC(C)(C)C(=O)Nc1cccc(-c2ccc3nc(-c4cccnc4N)n(-c4ccc(C5(N)CCC5)cc4)c3n2)c1` [Cmpd 4, N-(3-(3-(4-(1-aminocyclobutyl)phenyl)-2-(2-aminopyridin-3-yl)-3H-imidazo[4,5-b]pyridin-5-yl)phenyl)pivalamide], for which the GI50 in the assay with cells worked out at 265 µM. The IC50 with Phospho-Akt (S473) is 0.017 µM; in assay [2], 0.0017 µM. In assay [1], the Kd is 0.0004 µM.

`CC(=O)OC(C)(C)C(=O)Nc1cccc(-c2ccc3nc(-c4cccnc4N)n(-c4ccc(C5(N)CCC5)cc4)c3n2)c1` [Cmpd 5, 1-((3-(3-(4-(1-aminocyclobutyl)phenyl)-2-(2-aminopyridin-3-yl)-3H-imidazo[4,5-b]pyridin-5-yl)phenyl)amino)-2-methyl-1-oxopropan-2-yl acetate]: the Kd in assay [1] was 0.0007 µM. Moreover, the IC50 in assay [2] was 0.00446 µM.

In the case of `CC(C)(O)C(=O)Nc1cccc(-c2ccc3nc(-c4cccnc4N)n(-c4ccc(C5(N)CCC5)cc4)c3n2)c1` [Cmpd 6, N-(3-(3-(4-(1-aminocyclobutyl)phenyl)-2-(2-aminopyridin-3-yl)-3H-imidazo[4,5-b]pyridin-5-yl)phenyl)-2-hydroxy-2-methylpropanamide], the Kd in assay [1] is 0.0014 µM. Moreover, the IC50 in assay [2] was 0.00163 µM.

In the case of `C[C@H](O)CNC(=O)c1cccc(-c2ccc3nc(-c4cccnc4N)n(-c4ccc(C5(N)CCC5)cc4)c3n2)c1` [Cmpd 7, (S)-3-(3-(4-(1-aminocyclobutyl)phenyl)-2-(2-aminopyridin-3-yl)-3H-imidazo[4,5-b]pyridin-5-yl)-N-(2-hydroxypropyl)benzamide], the GI50 in the assay on cells amounted to 836 µM. For the same compound, in the assay on Phospho-Akt (S473), the IC50 is 0.012 µM.

For `C[C@@H](O)CNC(=O)c1cccc(-c2ccc3nc(-c4cccnc4N)n(-c4ccc(C5(N)CCC5)cc4)c3n2)c1` [Cmpd 8, (R)-3-(3-(4-(1-aminocyclobutyl)phenyl)-2-(2-aminopyridin-3-yl)-3H-imidazo[4,5-b]pyridin-5-yl)-N-(2-hydroxypropyl)benzamide], the GI50 in the assay on cells amounted to 1350 µM. In the assay with Phospho-Akt (S473), the IC50 is 0.008 µM.

With `CN(C)C(=O)C1CCN(c2cccc(-c3ccc4nc(-c5cccnc5N)n(-c5ccc(C6(N)CCC6)cc5)c4n3)c2)CC1` [Cmpd 9, 1-(3-(3-(4-(1-aminocyclobutyl)phenyl)-2-(2-aminopyridin-3-yl)-3H-imidazo[4,5-b]pyridin-5-yl)phenyl)-N,N-dimethylpiperidine-4-carboxamide], the IC50 in the assay with Phospho-Akt (S473) stood at 0.0021 µM; in assay [2], 0.00251 µM. Besides, in assay [1], the Kd is 0.0002 µM.

Regarding `CCN(CC)C(=O)C1CCN(c2cccc(-c3ccc4nc(-c5cccnc5N)n(-c5ccc(C6(N)CCC6)cc5)c4n3)c2)CC1` [Cmpd 10, 1-(3-(3-(4-(1-aminocyclobutyl)phenyl)-2-(2-aminopyridin-3-yl)-3H-imidazo[4,5-b]pyridin-5-yl)phenyl)-N,N-diethylpiperidine-4-carboxamide], the IC50 was 0.003 µM with Phospho-Akt (S473) and 0.00415 µM in assay [2]. For the same compound, the Kd in assay [1] was 0.0002 µM.

Take `Nc1ncccc1-c1nc2ccc(-c3cccc(N4CCC(C(=O)N5CCOCC5)CC4)c3)nc2n1-c1ccc(C2(N)CCC2)cc1` [Cmpd 11, (1-(3-(3-(4-(1-aminocyclobutyl)phenyl)-2-(2-aminopyridin-3-yl)-3H-imidazo[4,5-b]pyridin-5-yl)phenyl)piperidin-4-yl)(morpholino)methanone]: the IC50 in the assay on Phospho-Akt (S473) came out at 0.0017 µM; in assay [2], 0.00336 µM. In addition, the Kd in assay [1] is 0.0002 µM.

`CC(C)C(=O)N1CCN(c2cccc(-c3ccc4nc(-c5cccnc5N)n(-c5ccc(C6(N)CCC6)cc5)c4n3)c2)CC1` [Cmpd 15, 1-(4-(3-(3-(4-(1-aminocyclobutyl)phenyl)-2-(2-aminopyridin-3-yl)-3H-imidazo[4,5-b]pyridin-5-yl)phenyl)piperazin-1-yl)-2-methylpropan-1-one]: the IC50 in the assay with Phospho-Akt (S473) stood at 0.004 µM. The Kd in assay [1] was 0.0011 µM.

Consider `CC(C)(C)C(=O)N1CCN(c2cccc(-c3ccc4nc(-c5cccnc5N)n(-c5ccc(C6(N)CCC6)cc5)c4n3)c2)CC1` [Cmpd 16, 1-(4-(3-(3-(4-(1-aminocyclobutyl)phenyl)-2-(2-aminopyridin-3-yl)-3H-imidazo[4,5-b]pyridin-5-yl)phenyl)piperazin-1-yl)-2,2-dimethylpropan-1-one], for which, in assay [1], the Kd was 0.0017 µM. Also, the IC50 in assay [2] worked out at 0.00342 µM.

Consider `C[C@@H]1CN(c2cccc(-c3ccc4nc(-c5cccnc5N)n(-c5ccc(C6(N)CCC6)cc5)c4n3)c2)C[C@H](C)O1` [Cmpd 17, 3-(3-(4-(1-aminocyclobutyl)phenyl)-5-(3-((2S,6R)-2,6-dimethylmorpholino)phenyl)-3H-imidazo[4,5-b]pyridin-2-yl)pyridin-2-amine], for which the Kd in assay [1] was 0.0031 µM. Also, the IC50 in assay [2] stood at 0.00436 µM.

As to `Nc1ncccc1-c1nc2ccc(-c3cccc(N4CCS(=O)(=O)CC4)c3)nc2n1-c1ccc(C2(N)CCC2)cc1` [Cmpd 18, 4-(3-(3-(4-(1-aminocyclobutyl)phenyl)-2-(2-aminopyridin-3-yl)-3H-imidazo[4,5-b]pyridin-5-yl)phenyl)thiomorpholine 1,1-dioxide], the Kd in assay [1] is 0.0008 µM. Also, the IC50 in assay [2] is 0.00179 µM.

Consider `Nc1ncccc1-c1nc2ccc(Nc3ccccc3)nc2n1-c1ccc(C2(N)CCC2)cc1` [Cmpd 19, 3-(4-(1-aminocyclobutyl)phenyl)-2-(2-aminopyridin-3-yl)-N-phenyl-3H-imidazo[4,5-b]pyridin-5-amine], for which, in the assay with cells, the GI50 amounted to 1420 µM. The IC50 with Phospho-Akt (S473) was found to be 0.06 µM; in assay [2] it was 0.00377 µM.

Turning to `Nc1ncccc1-c1nc2ccc(Nc3ccc(N4CCOCC4)cc3)nc2n1-c1ccc(C2(N)CCC2)cc1` [Cmpd 20, 3-(4-(1-aminocyclobutyl)phenyl)-2-(2-aminopyridin-3-yl)-N-(4-morpholinophenyl)-3H-imidazo[4,5-b]pyridin-5-amine], the values for the IC50 (with Phospho-Akt (S473); in assay [2]) were 0.414 µM and 0.00872 µM, respectively. Besides, the Kd in assay [1] was 0.0573 µM.

Regarding `Nc1ncccc1-c1nc2ccc(Sc3ccccc3)nc2n1-c1ccc(C2(N)CCC2)cc1` [Cmpd 21, 3-(3-(4-(1-aminocyclobutyl)phenyl)-5-(phenylthio)-3H-imidazo[4,5-b]pyridin-2-yl)pyridin-2-amine], the IC50 in the assay on Phospho-Akt (S473) was determined as 0.605 µM. Further, the Kd in assay [1] is 0.11 µM.

In the case of `Nc1ncccc1-c1nc2ccc(Oc3ccccc3)nc2n1-c1ccc(C2(N)CCC2)cc1` [Cmpd 22, 3-(3-(4-(1-aminocyclobutyl)phenyl)-5-phenoxy-3H-imidazo[4,5-b]pyridin-2-yl)pyridin-2-amine], the Kd in assay [1] is 0.0831 µM.

The values above are taken from patent US8609688B2, “Substituted imidazopyridinyl-aminopyridine compounds” (ArQule, Inc., priority 2011, dated 2013).
